According to patent US5591755A, “Pyridinyl thiadiazolyl compounds for treating glaucoma” (Novo Nordisk A/S, priority 1990, dated 1997):
Where a name gives a salt, the structure may show the parent alone. Read-outs that look alike come from different tables or passages of the source.

Key:
[1] = target: muscarinic receptor in the CNS; details: read-out: affinity of sites labelled by 3H-Oxo, cited from earlier work
[2] = target: muscarinic acetylcholine receptors; assay: inhibition of specific binding of 3H-Oxotremorine-M (3H-Oxo), in vitro; design: species or system rat (cortex from male Wistar rats); details: 3H-Oxo binding, rat cortex, 1.0 nM radioligand, 20 mM Hepes pH 7.4, 30 min at 25° C.
From the text: The pharmacological properties of the compounds of the invention can be illustrated by determining their capability to inhibit the specific binding of ^3 H-Oxotremorine-M (^3 H-Oxo). Birdsdall N. J. M., Hulme E. C., and Burgen A. S. V. (1980). "The Character of Muscarinic Receptors in Different Regions of the Rat Brain". Proc. Roy. Soc. London (Series B) 207,1. ^3 H-Oxo labels muscarinic receptor in the CNS (with a preference for agonist domaines of the receptors). Three different sites are labelled by ^3 H-Oxo. […] Using the present experimental conditions only the high and medium affinity sites are determined.
The inhibitory effects of compounds on ^3 H-Oxo binding reflects the affinity for muscarinic acetylcholine receptors.
All preparations are performed at 0°-4° C. unless otherwise indicated. Fresh cortex (0.1-1 g) from male Wistar rats (150-250 g) is homogenized for 5-10 s in 10 ml 20 mM Hepes pH: 7.4, with an Ultra-Turrax homogenizer. The homogenizer is rinsed with 10 ml of buffer and the combined suspension centrifuged for 15 min at 40,000×g. The pellet is washed three times with buffer. In each step the pellet is homogenized as before in 2×10 ml of buffer and centrifuged for 10 min at 40,000×g.
The final pellet is homogenized in 20 mM Hepes pH: 7.4 (100 ml per g of original tissue) and used for binding assay. Aliquots of 0.5 ml is added 25 μl of test solution and 25 μl of 3H-Oxotremorine (1.0 nM, final concentration) mixed and incubated for 30 min at 25° C. Non-specific binding is determined in triplicate using arecoline (1 μg/ml, final concentration) as the test substance. After incubation samples are added 5 ml of ice-cold buffer and poured directly onto Whatman GF/C glass fiber filters under suction and immediately washed 2 times with 5 ml of ice-cold buffer. The amount of radioactivity on the filters are determined by conventional liquid scintillation counting. Specific binding is total binding minus non specific binding.
Test substances are dissolved in 10 ml water (if necessary heated on a steambath for less than 5 minutes) at a concentration of 2.2 mg/ml.
The test value will be given as IC50 (the concentration (ng/ml) of the test substance which inhibits the specific binding of ^3 H-Oxo by 50%). [formula] where Co is specific binding in control assays and Cx is the specific binding in the test assay. (The calculations assume normal mass-action kinetics).

[3] = tested on: central and peripheral muscarinic effects; details: cited from earlier work
[4] = in vivo; cited from earlier work

| Inhibition in vitro OXO BINDING (IC50) [2] [ng/mL] | SMILES | also measured |
| --- | --- | --- |
| – | C[N+](C)(C)CC#CCN1CCCC1=O [Compound 3H-Oxo, ^3 H-Oxotremorine-M] | Kd ([1]; first of three sites (high affinity)): 1.8 nM; Kd ([1]; second of three sites (medium affinity)): 20 nM; Kd ([1]; third of three sites (not determined under the present conditions)): 3000 nM |
| 4.5 | CCCCCCSc1nsnc1C1=CCC(C)N(C)C1.O=C(O)C(=O)O (stereo not shown) [Compound 3, 3-(3-Hexylthio-1,2,5-thiadiazol-4-yl)-1,2,5,6-tetrahydro-1,6-dimethylpyridine oxalate] | – |
| 0.69 | CC1CC=C(c2nsnc2SCCCCC#N)CN1C.O=C(O)C(=O)O (stereo not shown) [Compound 8, 3-(3-(4-Cyanobutylthio)-1,2,5-thiadiazol-4-yl)-1,2,5,6-tetrahydro-1,6-dimethylpyridine oxalate] | – |
| 108 | COc1nsnc1C1=C(C)CCN(C)C1.O=C(O)/C=C/C(=O)O [Compound 1, 1,2,5,6-Tetrahydro-3-(4-methoxy-1,2,5-thiadiazol-3-yl)-1,4-dimethylpyridine fumarate] | – |
| 3.3 | CCCCCOc1nsnc1C1=CCC(C)N(C)C1.O=C(O)C(=O)O (stereo not shown) [Compound 7, 3-(3-Pentyloxy-1,2,5-thiadiazol-4-yl)-1,2,5,6-tetrahydro-1,6-dimethylpyridine oxalate] | – |
| 2.0 | CCCCCSc1nsnc1C1=CCC(C)N(C)C1.O=C(O)C(=O)O (stereo not shown) [Compound 4, 3-(3-Pentylthio-1,2,5-thiadiazol-4-yl)-1,2,5,6-tetrahydro-1,6-dimethylpyridine oxalate] | – |
| 1.9 | CC1CC=C(c2nsnc2SCc2ccc(C#N)cc2)CN1C.O=C(O)C(=O)O (stereo not shown) [Compound 5, 3-(3-(4-Cyanobenzylthio)-1,2,5-thiadiazol-4-yl)-1,2,5,6-tetrahydro-1,6-dimethylpyridine oxalate] | – |
| 18 | CCCCCCOc1nsnc1C1=C(C)CCN(C)C1 [Compound 2, 3-(4-Hexyloxy-1,2,5-thiadiazol-3-yl)-1,2,5,6-tetrahydrohydro-1,4-dimethylpyridine oxalate] | – |
| 2.4 | CCCCCCOc1nsnc1C1=CCC(C)N(C)C1.O=C(O)C(=O)O (stereo not shown) [Compound 6, 3-(3-Hexyloxy-1,2,5-thiadiazol-4-yl)-1,2,5,6-tetrahydro-1,6-dimethylpyridine oxalate] | – |
| – | COC(=O)C1=CCCN(C)C1 [Arecoline, methyl 1-methyl-1,2,5,6-tetrahydropyridine-3-carboxylate] | separation between central and peripheral muscarinic effects [3]: small separation between central and peripheral muscarinic effects; biological half life [4]: very short biological half life |
